In US20070048325A1, “Combination therapies for inhibiting integrin-extracellular matrix interactions” (priority 2005, published 2007):
Where no end group is shown, it is not given here.

Experiments:
[1] = molecular target: integrin αvβ3 on M21 human melanoma cells (human (on human melanoma M21 cells)) (UniProt P06756); test: cell-based or functional assay
[2] = test system: denatured collagen type-IV; test: Solid phase ELISA of HRP-labeled CLK-peptide binding; conditions: collagen coated at 10 μg/ml; ELISA 490 nm
Procedure: FIG. 27 Inhibition of Binding of Labeled CLK-Peptide to Denatured Collagen Type-IV by mAb HUI77. To examine the binding specificity of the synthetic CLK-peptide, the peptide was labeled and solid phase ELISAs were performed.
To examine the binding specificity of CLK-Peptide, the peptide was labeled and solid phase ELISAs were performed. Denatured collagen type-IV (10 μg/ml) was coated on microtiter wells and binding of either HRP-labeled CLK-Peptide or mAbs (mAbs HU177 or HUIV26) was measured by ELISA at a wavelength of 490 nm.

[3] = test system: denatured collagen type-IV; test: ^99Tc-labeled CLK-peptide binding, gamma counter; conditions: for inhibition of ^99Tc-CLK-peptide binding to denatured collagen type-IV: collagen coated at 10 μg/ml
Procedure: FIG. 28 Inhibition of Binding of ^99Tc-Labeled CLK-Peptide to Denatured Collagen Type-IV by mAb HUI77. Denatured collagen type-IV (10 μg/ml) was coated on microtiter wells and binding of ^99Tc-labeled CLK-peptide in the presence or absence of unlabeled CLK-peptide or mAb HUI77 was measured. […] These findings provide further evidence that the CLK-peptide binds to a similar, if not identical, epitope recognized by the mAb HUI77.
In addition, denatured collagen type-IV (10 μg/ml) was coated on microtiter wells and binding of ^99Tc-labeled CLK-Peptide in the presence or absence of unlabeled CLK-peptide or mAb HUI77 was measured using a gamma counter. […] These findings provide further evidence that the CLK-peptide binds to a similar if not identical epitope recognized by Mab HUI77.

denatured collagen = conditions: cited from earlier work
[4] = test system: denatured collagen type-IV; conditions: substantially greater defined as at least 1.5-fold; cited from earlier work
M21 cells = test: M21 cell adhesion to native collagen type-IV; format: cell-based, human; conditions: CLK-peptide 100 μg/ml; mAb HUIV26 100 μg/ml; data not shown
Procedure: FIG. 25 Effect of mAb HUIV26 in Combination with CLK-Peptide on Adhesion of M21 Cells to Denatured Collagen Type IV. Microtiter wells were coated with either native or denatured collagen type-IV. M21 cells were allowed to bind to the coated substrates in the presence of CLK-peptide, mAb HUIV26, or both.
The effects of CLK-peptide, mAb HUIV26, and the combination of both on tumor cell adhesion were examined in vitro. Non-tissue culture treated 48-well microtiter plates were coated overnight at 4° C. with either native or denatured collagen type-IV (5 μg/ml). The plates were then blocked with 1% BSA in PBS for 1 hour at 37° C. Human melanoma (M21) cells at 10^5 cells/well in adhesion buffer were allowed to attach to the coated wells in the presence of either CLK-peptide (100 μg/ml), or mAb HUIV26 (100 μg/ml, […]), or both together (CLK-peptide 25 μg/ml, mAb HUIV26 100 μg/ml). The cells were washed 2× with PBS, stained with crystal violet and destained with 10% acetic acid. Cell adhesion was quantified by measuring the O.D. of eluted dye at 600 nm. Data bars represent the mean O.D.±standard deviation from triplicate wells.

[5] = test system: denatured collagen type-IV; test: Competition ELISA of CLK-peptide and mAb HUIV26; format: binding
Procedure: FIG. 26 Binding of CLK-Peptide and Mab HUIV26 to Denatured Collagen Type IV. To examine the epitope bound by CLK and HUIV26, competition ELISAs were carried out. Microtiter wells were coated with denatured collagen type-IV (10 μg/ml), and mAb HUIV26 was allowed to bind the denatured collagen in the presence or absence of CLK-peptide.
To characterize the epitope bound by CLK and HUIV26, competition ELISAs were carried out. Microtiter wells were coated with denatured collagen type-IV (1 μg/ml) overnight at 4° C., and the plates were blocked with 1% BSA for 1 hour at 37° C. Monoclonal Ab HUIV26 was added at 1 μg/ml and allowed to bind the denatured collagen in the presence or absence of 100 μg/ml of CLK-peptide for 2 hours at 37° C. Goat-anti-mouse antibody was added at 1:3000 and incubation was allowed for 1 hour at 37° C. A color solution, then a stopping solution of 4N sulfuric acid, were added and binding was quantified by measuring the O.D. 490 nm. […] Similar results were obtained over a wide range of peptide and antibody concentrations (1 to 100 μg/ml; data not shown).

UniProt P06756, sequence (P06756 31-1048, chain 1 of 2): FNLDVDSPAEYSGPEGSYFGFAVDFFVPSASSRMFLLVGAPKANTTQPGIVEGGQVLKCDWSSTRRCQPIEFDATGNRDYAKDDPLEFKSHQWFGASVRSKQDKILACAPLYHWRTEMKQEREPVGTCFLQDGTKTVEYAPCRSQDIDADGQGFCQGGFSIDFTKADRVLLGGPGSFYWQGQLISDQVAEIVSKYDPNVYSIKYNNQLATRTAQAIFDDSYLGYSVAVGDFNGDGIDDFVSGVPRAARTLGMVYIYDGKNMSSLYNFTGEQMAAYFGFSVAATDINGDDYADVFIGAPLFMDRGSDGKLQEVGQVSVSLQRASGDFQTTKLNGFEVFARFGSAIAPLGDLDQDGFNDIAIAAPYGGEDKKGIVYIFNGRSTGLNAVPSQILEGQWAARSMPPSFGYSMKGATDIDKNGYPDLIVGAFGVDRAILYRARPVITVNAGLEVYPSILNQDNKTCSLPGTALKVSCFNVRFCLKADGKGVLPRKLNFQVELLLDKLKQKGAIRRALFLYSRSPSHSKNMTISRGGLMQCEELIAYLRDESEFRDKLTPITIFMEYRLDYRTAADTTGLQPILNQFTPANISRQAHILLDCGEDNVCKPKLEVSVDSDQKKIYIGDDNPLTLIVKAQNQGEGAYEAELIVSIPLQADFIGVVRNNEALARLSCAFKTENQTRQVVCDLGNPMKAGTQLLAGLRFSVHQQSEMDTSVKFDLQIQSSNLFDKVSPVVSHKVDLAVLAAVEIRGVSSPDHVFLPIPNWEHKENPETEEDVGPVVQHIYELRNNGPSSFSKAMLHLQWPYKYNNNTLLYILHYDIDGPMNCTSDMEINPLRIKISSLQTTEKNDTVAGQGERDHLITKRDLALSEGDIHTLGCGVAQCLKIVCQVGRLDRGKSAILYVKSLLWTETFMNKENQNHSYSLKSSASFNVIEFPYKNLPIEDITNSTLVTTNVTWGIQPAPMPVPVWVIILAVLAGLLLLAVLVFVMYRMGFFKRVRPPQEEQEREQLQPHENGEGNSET
UniProt P06756, sequence (P05106 27-788, chain 2 of 2, further chain): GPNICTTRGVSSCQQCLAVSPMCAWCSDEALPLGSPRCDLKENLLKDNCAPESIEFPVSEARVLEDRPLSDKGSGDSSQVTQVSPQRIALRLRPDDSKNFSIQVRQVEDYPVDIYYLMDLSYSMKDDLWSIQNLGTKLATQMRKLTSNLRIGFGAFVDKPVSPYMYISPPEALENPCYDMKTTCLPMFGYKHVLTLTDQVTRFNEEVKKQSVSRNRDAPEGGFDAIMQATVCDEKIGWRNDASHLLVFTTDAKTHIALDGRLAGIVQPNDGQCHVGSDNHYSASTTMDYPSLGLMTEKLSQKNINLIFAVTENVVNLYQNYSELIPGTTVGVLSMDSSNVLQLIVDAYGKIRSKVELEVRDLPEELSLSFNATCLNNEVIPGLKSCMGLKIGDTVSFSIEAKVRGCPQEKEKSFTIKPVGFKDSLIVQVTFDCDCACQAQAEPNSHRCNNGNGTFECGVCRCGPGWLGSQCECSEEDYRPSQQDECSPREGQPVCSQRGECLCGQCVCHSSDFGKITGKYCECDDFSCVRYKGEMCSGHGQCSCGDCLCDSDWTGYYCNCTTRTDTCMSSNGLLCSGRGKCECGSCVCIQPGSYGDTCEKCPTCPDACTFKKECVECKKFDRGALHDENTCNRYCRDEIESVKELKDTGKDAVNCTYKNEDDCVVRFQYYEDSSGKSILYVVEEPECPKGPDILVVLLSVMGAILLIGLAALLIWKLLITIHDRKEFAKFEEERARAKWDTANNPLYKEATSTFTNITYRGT

Mab LM609 (antibody)
relative level of IGFBP-4 RNA (real time PCR) in M21 cells on denatured collagen type-IV [1]: 8 fold | relative level of TSP-1 (real time PCR) in M21 cells on plates coated with anti-integrin Mabs [1]: > 50% | relative level of TSP-1 RNA (real time PCR) in M21 cells on denatured collagen type-IV [1]: 8 fold

mAb HUI77: mouse monoclonal antibody to denatured collagen; hybridoma PTA-6551; SEQ ID NO: 1 and 8
inhibition of HRP-labeled CLK-peptide binding to denatured collagen type-IV [2]: specifically inhibited | inhibition of ^99Tc-CLK-peptide binding to denatured collagen type-IV [3]: inhibited | affinity to the native form of the collagen compared to denatured collagen (denatured collagen): substantially reduced affinity

NH2-S-L-K-Q-N-G-G-N—F—S-L-C—COOH (H-SLKQNGGNFSLC-OH) [SLK-peptide]
binding affinity to denatured collagen type-IV compared to native collagen type-IV [4]: substantially greater

^99Tc-CLK-peptide: CLK-peptide labeled with 99Tc (CLKQNGGNFSLG; also: labeled with 99Tc)
binding of ^99Tc-CLK-peptide to denatured collagen type-IV ([3]; 10 μg/ml, 50 μl/well): specifically binds

NH2-C-L-K-Q-N-G-G-N—F—S-L-G-COOH (H-CLKQNGGNFSLG-OH) [CLK-peptide]
effect on M21 cell adhesion to native collagen type-IV (M21 cells): neither had any effect | blocking of mAb HUIV26 binding to denatured collagen type-IV ([5]; HUIV26 1 μg/ml, CLK-peptide 100 μg/ml): did not block | binding affinity to denatured collagen type-IV compared to native collagen type-IV [4]: substantially greater | inhibition of ^99Tc-CLK-peptide binding to denatured collagen type-IV [3]: dose dependent inhibition

B1: mAb HUIV26: monoclonal antibody to denatured collagen; Hybridoma HUIV26 (PTA-6563); SEQ ID NO: 15 and 22 (antibody, listed as Mus musculus, V domains shown)
VH: EVKLLESGGGLVQPGGSLKLSCAASGFDFSRYWMSWVRQAPGKGLEWIGEINPDSSTINYTPSLKDKFIISRDNAKNTLYLQMSKVRSEDTALYYCARPVDGYYDAMDYWGQGTSVTVSS
VL: DIVMTQSPSLLSVSAGEKVTMSCKSSQSLLNSGNQKNYLAWYQQKPGQPPKLLIYGASTRESGVPDRFTGSGSGTDFTLIISSVQAEDLAVYYCQNDHSVPYTFGGGTKLEI
effect on M21 cell adhesion to native collagen type-IV (M21 cells): neither had any effect | binding to denatured collagen type-IV ([5]; ELISA, HUIV26 1 μg/ml): readily bound | blocking of CLK-peptide binding to denatured collagen type-IV ([5]; FIG. 26B): did not block | inhibition of HRP-labeled CLK-peptide binding to denatured collagen type-IV [2]: not | affinity to the native form of the collagen compared to denatured collagen (denatured collagen): substantially reduced affinity
